Data on 18 molecules can be found in PubChem BioAssay AID192 (DTP/NCI, 2004).

Structures are written as SMILES. Values joined by “and” are separate entries in the source; they are usually repeats but may differ in a detail not shown here. Equal entries are not always repeated. Toxic doses and inconclusive results are not listed.

In this experiment the test system is BDF1 mice, B16 melanoma ip, median survival T/C. The experiment is described as follows: NCI In Vivo Anticancer Drug Screen. Data for tumor model B16 Melanoma (intraperitoneal) in B6D2F1 (BDF1) mice. The conditions noted are these: endpoint: median survival time, higher = longer survival. The gist of the method: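 Vehicle-treated animals serve as the reference (C); treated animals (T) are scored for survival or tumor size after tumor transplantation.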

The mark [1] stands for this setting: dose: 25.0 mg/kg/injection, schedule: Q01DX009 (ip), vehicle: Klucel (hydroxypropylcellulose) (HPC).
Where [2] appears, read: dose: 50.0 mg/kg/injection, schedule: Q01DX009 (ip), vehicle: Klucel (hydroxypropylcellulose) (HPC).
The mark [3] stands for this setting: dose: 100.0 mg/kg/injection, schedule: Q01DX009 (ip), vehicle: Klucel (hydroxypropylcellulose) (HPC).
The mark [4] stands for this setting: dose: 200.0 mg/kg/injection, schedule: Q01DX009 (ip), vehicle: Klucel (hydroxypropylcellulose) (HPC).
Setting [5] is: dose: 400.0 mg/kg/injection, schedule: Q01DX009 (ip), vehicle: Klucel (hydroxypropylcellulose) (HPC).
Setting [6] is: dose: 75.0 mg/kg/injection, schedule: Q01DX009 (ip), vehicle: Klucel (hydroxypropylcellulose) (HPC).
The mark [7] stands for this setting: dose: 25.0 mg/kg/injection, schedule: Q04DX003 (ip), vehicle: saline with Tween-80.

On to `CCc1nc(N)nc(N)c1-c1ccc(Cl)c(Cl)c1`, for which the T/C (dose: 4.0 mg/kg/injection, schedule: Q01DX009 (ip), vehicle: Klucel (hydroxypropylcellulose) (HPC)) was 95 % of control; the T/C (dose: 8.0 mg/kg/injection, schedule: Q01DX009 (sc), vehicle: Klucel (hydroxypropylcellulose) (HPC)) is 123 % of control; the T/C (dose: 64.0 mg/kg/injection, schedule: Q01DX001 (ip), vehicle: Klucel (hydroxypropylcellulose) (HPC)) is 102 % of control.
Consider `COc1ccc2c(NCCCCCCCCNc3c4ccccc4nc4cc(OC)ccc34)c3ccccc3nc2c1`, for which the T/C (dose: 3.75 mg/kg/injection, schedule: Q01DX009 (ip), vehicle: distilled water + alcohol) was 95 % of control.
In the case of `COc1c2c([n+](C)c3c(OC)cccc13)OC(C(C)C)C2` (centres undefined), the T/C is 102 % of control (dose: 0.25 mg/kg/injection, schedule: Q01DX009 (ip), vehicle: saline sonified); 100 % of control (dose: 0.5 mg/kg/injection, schedule: Q01DX009 (ip), vehicle: saline sonified); 94 % of control (dose: 0.75 mg/kg/injection, schedule: Q01DX009 (ip), vehicle: saline); 102 % of control (dose: 1.0 mg/kg/injection, schedule: Q01DX009 (ip), vehicle: saline sonified); 88 % of control (dose: 1.5 mg/kg/injection, schedule: Q01DX009 (ip), vehicle: saline); 107 % of control (dose: 1.5 mg/kg/injection, schedule: Q04DX003 (ip), vehicle: saline). For the same molecule, the T/C (dose: 3.0 mg/kg/injection, schedule: Q04DX003 (ip), vehicle: saline) is 89 % of control.
`O[C@H](CN1CC1)[C@@H](O)CN1CC1`: the T/C (dose: 0.13 mg/kg/injection, schedule: Q01DX009 (ip), vehicle: saline) is 117 % of control; the T/C (dose: 0.25 mg/kg/injection, schedule: Q01DX009 (ip), vehicle: saline) is 151 % of control; the T/C (dose: 0.5 mg/kg/injection, schedule: Q01DX009 (ip), vehicle: saline) was 166 % of control.
On to `CC1=Nc2ccc([N+](=O)[O-])cc2N=C(C)C1`, for which the T/C (dose: 37.5 mg/kg/injection, schedule: Q01DX009 (ip), vehicle: saline) is 97 % of control; the T/C (dose: 75.0 mg/kg/injection, schedule: Q01DX009 (ip), vehicle: saline) is 101 % of control; the T/C (dose: 150.0 mg/kg/injection, schedule: Q01DX009 (ip), vehicle: saline) is 89 % of control.
Turning to `COC(=O)C(C)CN1CCCCCC1` (centres undefined), the T/C is 108 % of control (dose: 50.0 mg/kg/injection, schedule: Q04DX003 (ip), vehicle: saline); 102 % of control (dose: 100.0 mg/kg/injection, schedule: Q04DX003 (ip), vehicle: saline); 100 % of control (dose: 200.0 mg/kg/injection, schedule: Q04DX003 (ip), vehicle: saline).
Regarding `CC(=O)[C@H]1CC[C@H]2[C@@H]3C[C@H](F)C4=CC(=O)CC[C@]4(C)[C@@]3(F)[C@@H](O)C[C@]12C`, the T/C is 95 % of control (dose: 12.5 mg/kg/injection, schedule: Q01DX009 (ip), vehicle: Klucel (hydroxypropylcellulose) (HPC)); 97 % of control under setting [1]; 104 % of control under setting [2]; 102 % of control (dose: 100.0 mg/kg/injection, schedule: Q04DX003 (ip), vehicle: saline with Tween-80); 110 % of control (dose: 200.0 mg/kg/injection, schedule: Q04DX003 (ip), vehicle: saline with Tween-80); 110 % of control (dose: 400.0 mg/kg/injection, schedule: Q04DX003 (ip), vehicle: saline with Tween-80).
Consider `CCOc1ccccc1NC(=O)COc1ccc(Cl)cc1`, for which the T/C under setting [3] is 106 % of control, the T/C under setting [4] was 96 % of control and the T/C under setting [5] is 100 % of control.
In the case of `Nc1nc(=S)c2ncn(C3OC(COC(=O)c4ccc(Cl)cc4)C(OC(=O)c4ccc(Cl)cc4)C3OC(=O)c3ccc(Cl)cc3)c2[nH]1` (centres undefined), the T/C (dose: 18.75 mg/kg/injection, schedule: Q01DX009 (ip), vehicle: Klucel (hydroxypropylcellulose) (HPC)) is 116 % of control; the T/C (dose: 37.5 mg/kg/injection, schedule: Q01DX009 (ip), vehicle: Klucel (hydroxypropylcellulose) (HPC)) was 120 % of control; the T/C under setting [6] was 116 % of control; the T/C (dose: 150.0 mg/kg/injection, schedule: Q01DX009 (ip), vehicle: Klucel (hydroxypropylcellulose) (HPC)) was 109 % of control.
`COc1ccc(NC(=O)Oc2c(C(C)C)cccc2C(C)C)cc1`: the T/C under setting [3] was 96 % of control; the T/C (dose: 100.0 mg/kg/injection, schedule: Q04DX003 (ip), vehicle: Klucel (hydroxypropylcellulose) (HPC)) was 110 % of control; the T/C under setting [4] is 96 % of control; the T/C (dose: 200.0 mg/kg/injection, schedule: Q04DX003 (ip), vehicle: Klucel (hydroxypropylcellulose) (HPC)) was 103 % of control; the T/C under setting [5] is 89 % of control; the T/C (dose: 400.0 mg/kg/injection, schedule: Q04DX003 (ip), vehicle: Klucel (hydroxypropylcellulose) (HPC)) was 103 % of control.
With `O=C(C=C(C(F)(F)F)C(F)(F)F)c1cccc([N+](=O)[O-])c1`, the T/C is 95 % of control (dose: 0.2 mg/kg/injection, schedule: Q01DX009 (ip), vehicle: saline); 102 % of control (dose: 0.4 mg/kg/injection, schedule: Q01DX009 (ip), vehicle: saline); 95 % of control (dose: 0.8 mg/kg/injection, schedule: Q01DX009 (ip), vehicle: saline); 86 % of control (dose: 6.25 mg/kg/injection, schedule: Q01DX009 (ip), vehicle: saline with Tween-80); 113 % of control (dose: 6.25 mg/kg/injection, schedule: Q04DX003 (ip), vehicle: saline with Tween-80); 111 % of control under setting [7].
In the case of `Cc1c2cc3c(c1O)C(=O)CC(O3)c1ccc(O)c(c1)-c1cccc(c1O)C(=O)OCC1OC(O2)C(O)C(O)C1O` (centres undefined), the T/C (dose: 0.13 mg/kg/injection, schedule: Q01DX009 (ip), vehicle: Klucel (hydroxypropylcellulose) (HPC)) was 93 % of control; the T/C (dose: 0.25 mg/kg/injection, schedule: Q01DX009 (ip), vehicle: Klucel (hydroxypropylcellulose) (HPC)) was 95 % of control; the T/C (dose: 0.5 mg/kg/injection, schedule: Q01DX009 (ip), vehicle: Klucel (hydroxypropylcellulose) (HPC)) is 89 % of control; the T/C (dose: 1.0 mg/kg/injection, schedule: Q01DX009 (ip), vehicle: Klucel (hydroxypropylcellulose) (HPC)) was 88 % of control.
Take `O=[N+]([O-])c1ccccc1O`: the T/C was 97 % of control (dose: 12.5 mg/kg/injection, schedule: Q01DX009 (ip), vehicle: saline with Tween-80); 94 % of control (dose: 12.5 mg/kg/injection, schedule: Q04DX003 (ip), vehicle: saline with Tween-80); 92 % of control (dose: 25.0 mg/kg/injection, schedule: Q01DX009 (ip), vehicle: saline with Tween-80); 91 % of control under setting [7]; 100 % of control (dose: 50.0 mg/kg/injection, schedule: Q01DX009 (ip), vehicle: saline with Tween-80); 100 % of control (dose: 50.0 mg/kg/injection, schedule: Q04DX003 (ip), vehicle: saline with Tween-80).
On to `Cn1c(O)c(C=N)c(=O)[nH]c1=O`, for which the T/C under setting [6] is 90 % of control and the T/C (dose: 300.0 mg/kg/injection, schedule: Q01DX009 (ip), vehicle: Klucel (hydroxypropylcellulose) (HPC)) is 90 % of control.
As for `COc1cccc2c1C(=O)c1c(O)c3c(c(O)c1C2=O)C[C@@](O)(C(=O)COC(=O)Cc1ccccc1)C[C@@H]3OC1CC(N)C(O)C(C)O1` (some centres undefined), the T/C (dose: 0.5 mg/kg/injection, schedule: Q01DX009 (ip), vehicle: saline with Tween-80) is 151 % of control and 186 % of control; the T/C (dose: 1.0 mg/kg/injection, schedule: Q01DX009 (ip), vehicle: saline with Tween-80) was 165 % of control and 186 % of control; the T/C (dose: 2.0 mg/kg/injection, schedule: Q01DX009 (ip), vehicle: saline with Tween-80) is 172 % of control and 232 % of control.
As for `Cc1c(NCO)c(=O)n(-c2ccccc2)n1C`, the T/C (dose: 100.0 mg/kg/injection, schedule: Q01DX009 (ip), vehicle: saline) was 102 % of control; the T/C (dose: 200.0 mg/kg/injection, schedule: Q01DX009 (ip), vehicle: saline) was 94 % of control; the T/C (dose: 400.0 mg/kg/injection, schedule: Q01DX009 (ip), vehicle: saline) is 91 % of control.
Consider `CNC(=O)Nc1cccc(C(F)(F)F)c1`, for which the T/C by setting is: under setting [1], 99 % of control; under setting [2], 100 % of control; under setting [3], 90 % of control and 112 % of control.
For the molecule `Cc1ccc(OC(=O)/C=C/C(=O)Oc2ccc(C)cc2)cc1`, the T/C is, setting by setting: (dose: 75.0 mg/kg/injection, schedule: Q04DX003 (ip), vehicle: Klucel (hydroxypropylcellulose) (HPC)) 89 % of control; (dose: 150.0 mg/kg/injection, schedule: Q04DX003 (ip), vehicle: Klucel (hydroxypropylcellulose) (HPC)) 94 % of control; (dose: 300.0 mg/kg/injection, schedule: Q04DX003 (ip), vehicle: Klucel (hydroxypropylcellulose) (HPC)) 100 % of control.
